Like-named read-outs stand apart in the source and are kept apart here.
Key:
Tetranychus urticae = assay: Tetranychus test, OP-resistant (TETRUR spray treatment); format: in vivo; settings: bean leaf discs, after 6 days
Description: Tetranychus Test, OP-Resistant (TETRUR Spray Treatment)
Solvent: 78.0 parts by weight of acetone • • 1.5 parts by weight of dimethylformamide
Emulgator: 0.5 part by weight of alkylaryl polyglycol ether
To produce an appropriate active ingredient formulation, 1 part by weight of active ingredient is mixed with the stated amounts of solvent and emulsifier, and the concentrate is diluted with emulsifier-containing water to the desired concentration.
Discs of bean leaves (Phaseolus vulgaris) infested by all stages of the red spider mite (Tetranychus urticae) are sprayed with an active ingredient formulation of the desired concentration.
After 6 days, the efficacy in % is determined. 100% means that all of the spider mites have been killed; 0% means that none of the spider mites have been killed.

Phaedon cochleariae = assay: Phaedon test (PHAECO spray treatment); format: in vivo; settings: Chinese cabbage leaf discs, after 7 days
Description: Phaedon Test ([…] Spray Treatment) Solvent: 78.0 parts by weight of acetone • • 1.5 parts by weight of dimethylformamide Emulsifier: 0.5 part by weight of alkylaryl polyglycol ether To produce an appropriate active ingredient formulation, 1 part by weight of active ingredient is mixed with the stated amounts of solvent and emulsifier, and the concentrate is diluted with emulsifier-containing water to the desired concentration. Leaf discs of Chinese cabbage (Brassica pekinensis) are sprayed with an active ingredient formulation of the desired concentration and, after drying, populated with larvae of the mustard beetle (Phaedon cochleariae). After 7 days, the efficacy in % is determined. 100% means that all of the beetle larvae have been killed; 0% means that none of the beetle larvae have been killed.

Spodoptera frugiperda = Spodoptera frugiperda test (SPODFR spray treatment); format: in vivo; settings: maize leaf discs, after 7 days
Description: Spodoptera frugiperda Test (SPODFR Spray Treatment) Solvent: 78.0 parts by weight of acetone • • 1.5 parts by weight of dimethylformamide To produce an appropriate active ingredient formulation, 1 part by weight of active ingredient is mixed with the stated amounts of solvent and emulsifier, and the concentrate is diluted with emulsifier-containing water to the desired concentration. Leaf discs of maize (Zea mays) are sprayed with an active ingredient formulation of the desired concentration and, after drying, populated with caterpillars of the armyworm (Spodoptera frugiperda). After 7 days, the efficacy in % is determined 100% means that all of the caterpillars have been killed; 0% means that none of the caterpillars have been killed.

logP (HPLC-MS) = format: physicochemical
[1] = HPLC, reversed-phase column (C18), acidic range pH 2.7, acetonitrile (0.1% formic acid)/water gradient, 43° C., calibration with unbranched alkan-2-ones, read-out: log p
[2] = HPLC, reversed-phase column (C18), acidic range pH 2.7, acetonitrile (0.1% formic acid)/water gradient, 43° C., calibration with unbranched alkan-2-ones
[3] = HPLC, reversed-phase column (C18), 43° C., acidic range pH 2.7, EEC directive 79/831 Annex V.A8, two values = both regioisomers (G = N)

Structure (SMILES) | efficacy in % (Tetranychus urticae; application rate 100 g/ha) [%] | efficacy in % (Phaedon cochleariae; application rate 100 g/ha) [%] | efficacy in % (Spodoptera frugiperda; application rate 100 g/ha) [%] | log p (logP (HPLC-MS); [2]) | other results
CCn1c(C(=O)NC(c2cccc(C(F)(F)F)c2)C(F)(F)F)nc2cc(C(=O)NC3CC3)c(Cl)cc21 (stereo not shown) [Compound 4, 6-chloro-N^5-cyclopropyl-1-ethyl-N^2-{2,2,2-trifluoro-1-[3-(trifluoromethyl)phenyl]ethyl}-1H-benzimidazole-2,5-dicarboxamide] |  |  |  |  | efficacy in % (Tetranychus urticae; application rate 500 g/ha): 100%; pest or weed control at 500 g/ha (Phaedon cochleariae; Phaedon cochleariae, foliar, 168 h, application rate 500 g/ha, read-out: efficacy in %): 100%; efficacy in % (Spodoptera frugiperda; application rate 500 g/ha): 100%; chromatographic logP (logP (HPLC-MS); [1]): 3.67; chromatographic logP (logP (HPLC-MS); HPLC-MS): 3.71
CCn1c(C(=O)NC(c2cccc(C(F)(F)F)c2)C(F)(F)F)cc2cc(C(=O)NC(C)C#N)c(Cl)cc21 (stereo not shown) [Compound 9] | 90 | 100 | 100 | 3.72 | 
CCn1c(C(=O)NC(c2cc(Cl)cc(Cl)c2)C(F)(F)F)cc2cc(C(=O)NC3(C#N)CC3)c(Cl)cc21 (stereo not shown) [Compound 43] | 100 | 100 | 100 | 4.14 | 
Cn1c(C(=O)NC(c2cccc(Cl)c2)C(F)(F)F)cc2cc(C(=O)NC3(C#N)CC3)c(Cl)cc21 (stereo not shown) [Compound 46] | 100 | 100 |  | 3.31 | 
Cn1c(C(=O)NC(c2cccc(Br)c2)C(F)(F)F)cc2cc(C(=O)NC3CC3)c(Cl)cc21 (stereo not shown) [Compound 47] | 90 | 100 |  | 3.42 | 
Cn1c(C(=O)NC(c2ccc(F)c(Br)c2)C(F)(F)F)cc2cc(C(=O)NC3CC3)c(Cl)cc21 (stereo not shown) [Compound 51] | 100 | 100 | 100 | 3.61 | 
Cn1c(C(=O)NC(c2ccc(F)c(Cl)c2)C(F)(F)F)cc2cc(C(=O)NC3CC3)c(Cl)cc21 (stereo not shown) [Compound 53] | 100 | 100 | 100 | 3.42 | 
C#CCn1c(C(=O)NC(c2cccc(Cl)c2)C(F)(F)F)cc2cc(C(=O)NC3(C#N)CC3)c(Cl)cc21 (stereo not shown) [Compound 58] | 100 | 100 | 100 | 3.42 | 
C#CCn1c(C(=O)NC(c2cccc(Br)c2)C(F)(F)F)cc2cc(C(=O)NC3CC3)c(Cl)cc21 (stereo not shown) [Compound 59] | 100 |  | 100 | 3.44 | 
C#CCn1c(C(=O)NC(c2cccc(Br)c2)C(F)(F)F)cc2cc(C(=O)NC3(C#N)CC3)c(Cl)cc21 (stereo not shown) [Compound 60] | 100 | 100 | 100 | 3.48 | 
C#CCn1c(C(=O)NC(c2ccc(F)c(Cl)c2)C(F)(F)F)cc2cc(C(=O)NC3(C#N)CC3)c(Cl)cc21 (stereo not shown) [Compound 64] | 100 | 100 | 100 | 3.41 | 
C#CCn1c(C(=O)NC(c2cc(Cl)cc(Cl)c2)C(F)(F)F)cc2cc(C(=O)NC3CC3)c(Cl)cc21 (stereo not shown) [Compound 65] | 100 |  | 100 | 3.90 | 
C#CCn1c(C(=O)NC(c2cc(Cl)cc(Cl)c2)C(F)(F)F)cc2cc(C(=O)NC3(C#N)CC3)c(Cl)cc21 (stereo not shown) [Compound 66] | 100 | 100 | 100 | 3.87 | 
CCn1c(C(=O)NC(c2cccc(Cl)c2)C(F)(F)F)cc2cc(C(=O)NC3CC3)c(C)cc21 (stereo not shown) [Compound 184] | 100 | 100 | 100 | 3.57 | 
CCn1c(C(=O)NC(c2cccc(Cl)c2)C(F)(F)F)cc2cc(C(=O)NC3(C#N)CC3)c(C)cc21 (stereo not shown) [Compound 185] | 100 | 100 | 100 | 3.58 | 
CCn1c(C(=O)NC(c2ccc(F)c(C(F)(F)F)c2)C(F)(F)F)cc2cc(C(=O)NC3(C#N)CC3)c(C)cc21 (stereo not shown) [Compound 189] | 100 | 100 | 100 | 3.77 | 
CCn1c(C(=O)NC(c2cccc(C(F)(F)F)c2)C(F)(F)F)cc2cc(C(=O)NCCC#N)c(Cl)cc21 (stereo not shown) [Compound 263] | 100 | 100 | 100 | 3.53 | 
C#CCC(C#N)NC(=O)c1cc2cc(C(=O)NC(c3cccc(C(F)(F)F)c3)C(F)(F)F)n(CC)c2cc1Cl (stereo not shown) [Compound 268] | 100 | 100 | 100 | 3.91 | 
N#CC1(NC(=O)c2cc3cc(C(=O)NC(c4cccc(C(F)(F)F)c4)C(F)(F)F)n(CC4CC4)c3cc2Cl)CC1 (stereo not shown) [Compound 272] | 100 | 100 | 100 | 4.03 | 
CCn1c(C(=O)NC(c2cccc(C(F)(F)F)c2)C(F)(F)F)cc2cc(C(=O)NC3(C(N)=S)CC3)c(Cl)cc21 (stereo not shown) [Compound 273, N^5-(1-carbamothioylcyclopropyl)-6-chloro-1-ethyl-N^2-{2,2,2-trifluoro-1-[3-(trifluoromethyl)phenyl]ethyl}-1H-indole-2,5-dicarboxamide] | 100 |  | 100 |  | pest or weed control at 100 g/ha (Phaedon cochleariae; Phaedon cochleariae, foliar, 168 h, application rate 100 g/ha, read-out: efficacy in %): 100%; chromatographic logP (logP (HPLC-MS); [1]): 3.56; chromatographic logP (logP (HPLC-MS); HPLC-MS): 3.56
N#CC1(NC(=O)c2cc3cc(C(=O)NC(c4cccc(C(F)(F)F)c4)C(F)(F)F)n(C4CCC4)c3cc2Cl)CC1 (stereo not shown) [Compound 274] |  |  |  | 4.03 | efficacy in % (Tetranychus urticae; application rate 500 g/ha): 100%; efficacy in % (Phaedon cochleariae; application rate 500 g/ha): 100%; efficacy in % (Spodoptera frugiperda; application rate 500 g/ha): 100%
N#CC1(NC(=O)c2cc3cc(C(=O)NC(c4cccc(C(F)(F)F)c4)C(F)(F)F)n(COCc4ccccc4)c3cc2Cl)CC1 (stereo not shown) [Compound 286] | 100 | 100 |  |  | log p (logP (HPLC-MS); [3]): 4.17
N#CCn1c(C(=O)NC(c2cccc(C(F)(F)F)c2)C(F)(F)F)cc2cc(C(=O)NC3(C#N)CC3)c(Cl)cc21 (stereo not shown) [Compound 294] |  | 100 |  |  | efficacy in % (Tetranychus urticae; application rate 500 g/ha): 100%; log p (logP (HPLC-MS); [3]): 3.30
C=CCN(C(=O)c1cc2nc(C(=O)NC(c3cccc(C(F)(F)F)c3)C(F)(F)F)n(CC=C)c2cc1Cl)C1CC1 (stereo not shown) [Compound 309] |  |  |  |  | efficacy in % (Phaedon cochleariae; application rate 500 g/ha): 83%; efficacy in % (Spodoptera frugiperda; application rate 500 g/ha): 100%; log p (logP (HPLC-MS); [3]): 4.74
CCn1c(C(=O)NC(c2cc(Cl)cc(Cl)c2)C(F)(F)F)nc2cc(C(=O)NC3CC3)c(Cl)cc21 (stereo not shown) [Compound 317] |  |  |  |  | efficacy in % (Tetranychus urticae; application rate 500 g/ha): 100%; efficacy in % (Phaedon cochleariae; application rate 500 g/ha): 100%; efficacy in % (Spodoptera frugiperda; application rate 500 g/ha): 100%
CCn1c(C(=O)NC(c2cccc(C(F)(F)F)c2)C(F)(F)F)cc2cc(C(=O)NC3(C#N)CC3)c(C(C)C)cc21 (stereo not shown) [Compound 319] |  | 100 | 100 |  | log p (logP (HPLC-MS); [3]): 4.08
